Test results: US3984440A, “Polyene compounds” (Hoffmann-La Roche Inc., priority 1973, dated 1976)

How the values were obtained:
[1] = acute toxicity after intraperitoneal administration in rape oil; conditions: mouse, in vivo, ip
[2] = test system: papillomas induced with dimethyl-benzanthracene and croton oil; assay: papilloma test: regression of tumors induced with dimethyl-benzanthracene and croton oil; assay type: in vivo; conditions: mice, intraperitoneal, 400mg/kg/week, within two weeks
Method: The polyene compounds of formula I are useful in the topical and systemic prophylaxis and treatment of benignant and malignant neoplasias and premalignant lesions. The tumor-inhibiting activity of the polyene compounds of the invention is significant. […] The diameter of such papillomas in mice decreased by 55% within two weeks upon intraperitoneal administration of 400mg/kg/week of 9-(2,2,5,7,8-pentamethyl-chroman-6-yl)-3,7-dimethyl-nona-2,4,6,8-tetraen-1-oic acid.

`CC(/C=C/c1c(C)c(C)c2c(c1C)CCC(C)(C)O2)=C\C=C\C(C)=C\C(=O)O` [9-(2,2,5,7,8-pentamethyl-chroman-6-yl)-3,7-dimethyl-nona-2,4,6,8-tetraen-1-oic acid] gave an LD50 [1] of 950 mg/kg, an LD50 at 24 h [1] of over 4000 mg/kg and an LD50 at 240 h [1] of 950 mg/kg. For the same compound, the LD50 at 480 h [1] was 950 mg/kg and the “decrease of diameter of papillomas” value [2] was 55%.
